pIC50: −log10 of the molar value. Structures can show the parent of a compound that is named as a salt.
Molecular target: T1, PKBα (Homo sapiens, UniProt P31749)
T1 construct: the full length PKBα and a kinase domain of PKBα with pleckstrin domain (amino acids 1-117) deleted
Test: PKB kinase assay (P33-labeled ATP, synthetic peptide substrate, filter plate capture)
Format: biochemical
Conditions: with respect to PKBα
Description: The kinase assay for evaluating PKB activity comprises active PKB enzymes, a PKB specific substrate, and P^33-labeled ATP. Two form of PKBα enzymes were used, the full length PKBα and a kinase domain of PKBα with pleckstrin domain (amino acids 1-117) deleted. Both PKB enzymes were obtained from Upstate cell signaling solutions (Cat. #14-276 and 14-341). The PKB substrate used is a synthetic peptide (ARKRERTYSFGHHA (SEQ ID NO: 1)) as described in Obata et al., J. Biol. Chem. 275 (46), 36108-36115 (2000). The phosphorylated substrate was captured by a phosphocellulose membrane filter plate (MILLIPORE) and measured by a Wallac Microbeta liquid scintillation counter (Perkin Elmer). Table 1 provides the IC50 values obtained for each of the examples with respect to PKBα.

T1 sequence (P31749 118-480 limits assumed): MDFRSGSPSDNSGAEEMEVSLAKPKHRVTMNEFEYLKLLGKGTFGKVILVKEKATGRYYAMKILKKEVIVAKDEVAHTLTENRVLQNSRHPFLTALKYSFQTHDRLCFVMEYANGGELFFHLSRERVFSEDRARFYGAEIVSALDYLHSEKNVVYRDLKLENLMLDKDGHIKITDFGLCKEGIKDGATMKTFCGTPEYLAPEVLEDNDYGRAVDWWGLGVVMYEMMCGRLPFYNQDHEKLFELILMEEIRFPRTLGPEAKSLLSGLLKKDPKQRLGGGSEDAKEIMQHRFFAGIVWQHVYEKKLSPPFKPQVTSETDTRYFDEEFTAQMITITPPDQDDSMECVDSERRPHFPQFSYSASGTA

SMILES | pIC50
CC(Nc1nnc(-c2ccc3cnccc3c2)s1)c1ccco1 (racemic) [Example 22, (±)-N-(1-(Furan-2-yl)ethyl)-5-(isoquinolin-6-yl)-1,3,4-thiadiazol-2-amine] | 5.00 to 6.00
CCC(O)CNc1nnc(-c2ccc3cnccc3c2)s1 (racemic) [Example 23, (±)-1-(5-(Isoquinolin-6-yl)-1,3,4-thiadiazol-2-ylamino)butan-2-ol] | 5.00 to 6.00
Oc1cccc(C(O)CNc2nnc(-c3ccc4cnccc4c3)s2)c1 (racemic) [Example 24, (±)-3-(1-Hydroxy-2-(5-(isoquinolin-6-yl)-1,3,4-thiadiazol-2-ylamino)ethyl)phenol] | 5.00 to 6.00
O=C(Nc1nnc(-c2ccc3cnccc3c2)s1)[C@@H]1NCC[C@@H]1c1ccccc1 (racemic) [Example 26, (±)-cis-N-(5-(Isoquinolin-6-yl)-1,3,4-thiadiazol-2-yl)-3-phenylpyrrolidine-2-carboxamide] | 6.00 to 7.30
OC(CNc1nnc(-c2ccc3cnccc3c2)s1)Cc1ccccc1 (racemic) [Example 29, (±)-1-(5-(isoquinolin-6-yl)-1,3,4-thiadiazol-2-ylamino)-3-phenylpropan-2-ol] | 6.00 to 7.30
OC(CNc1nnc(-c2ccc3cnccc3c2)s1)Cc1ccc(C(F)(F)F)cc1 (racemic) [Example 30, (±)-1-(5-(Isoquinolin-6-yl)-1,3,4-thiadiazol-2-ylamino)-3-(4-(trifluoromethyl)phenyl)propan-2-ol] | 6.00 to 7.30
c1ccc([C@@H]2CCN[C@@H]2CNc2nnc(-c3ccc4cnccc4c3)s2)cc1 (racemic) [Example 33, Racemic mixture of 5-(isoquinolin-6-yl)-N-(((2S,3S)-3-phenylpyrrolidin-2-yl)methyl)-1,3,4-thiadiazol-2-amine and 5-(isoquinolin-6-yl)-N-(((2R,3R)-3-phenylpyrrolidin-2-yl)methyl)-1,3,4-thiadiazol-2-amine] | 6.00 to 7.30
NC(CNc1nnc(-c2cccc3cnncc23)s1)Cc1ccc(C(F)(F)F)cc1 (stereo in doubt) [Example 28, N-((S)-2-amino-3-(4-(trifluoromethyl)phenyl)propyl)-5-(phthalazin-5-yl)-1,3,4-thiadiazol-2-amine] | 5.00 to 6.00
Cn1c(=O)[nH]c2ccc(-c3nnc(NC[C@@H](N)Cc4ccc(C(F)(F)F)cc4)s3)cc21 [Example 1, 6-(5-((S)-2-Amino-3-(4-(trifluoromethyl)phenyl)propylamino)-1,3,4-thiadiazol-2-yl)-1-methyl-1H-benzo[d]imidazol-2(3H)-one] | > 7.30
N[C@H](CNc1nnc(-c2ccc3c(c2)CC(=O)N3)s1)Cc1ccc(C(F)(F)F)cc1 [Example 2, 5-(5-((S)-2-amino-3-(4-(trifluoromethyl)phenyl)propylamino)-1,3,4-thiadiazol-2-yl)indolin-2-one] | > 7.30
N[C@H](CNc1nnc(-c2cc3c(cc2F)NC(=O)C3)s1)Cc1ccc(C(F)(F)F)cc1 [Example 3, 5-(5-((S)-2-Amino-3-(4-(trifluoromethyl)phenyl)propylamino)-1,3,4-thiadiazol-2-yl)-6-fluoroindolin-2-one] | 6.00 to 7.30
CC(F)(F)c1ccc(C[C@H](N)CNc2nnc(-c3ccc4c(c3)CC(=O)N4)s2)cc1 [Example 4, 5-(5-((S)-2-Amino-3-(4-(1,1-difluoroethyl)phenyl)propylamino)-1,3,4-thiadiazol-2-yl)indolin-2-one] | > 7.30
CC(C)n1c(=O)[nH]c2ccc(-c3nnc(NC[C@@H](N)Cc4ccc(C(F)(F)F)cc4)s3)cc21 [Example 5, 6-(5-((S)-2-Amino-3-(4-(trifluoromethyl)phenyl)propylamino)-1,3,4-thiadiazol-2-yl)-1-isopropyl-1H-benzo[d]imidazol-2(3H)-one] | 5.00 to 6.00
CC(C)=C1C(=O)Nc2ccc(-c3nnc(NC[C@@H](N)Cc4ccc(C(F)(F)F)cc4)s3)cc21 [Example 6, 5-(5-((S)-2-Amino-3-(4-(trifluoromethyl)phenyl)propylamino)-1,3,4-thiadiazol-2-yl)-3-(propan-2-ylidene)indolin-2-one] | 5.00 to 6.00
C[C@@H](c1ccc(C(F)(F)F)cc1)[C@H](N)CNc1nnc(-c2ccc3c(c2)CC(=O)N3)s1 [Example 7, 5-(5-((2S,3S)-2-Amino-3-(4-(trifluoromethyl)phenyl)butylamino)-1,3,4-thiadiazol-2-yl)indolin-2-one] | > 7.30
N[C@H](CNc1nnc(-c2cc3c(Cl)cncc3s2)s1)Cc1cccc(C(F)(F)F)c1 [Example 8, N-((S)-2-amino-3-(3-(trifluoromethyl)phenyl)propyl)-5-(4-chlorothieno[2,3-c]pyridin-2-yl)-1,3,4-thiadiazol-2-amine] | 6.00 to 7.30
N[C@H](CNc1nnc(-c2cc3c(Cl)cncc3s2)s1)Cc1ccc(C(F)(F)F)cc1 [Example 9, N-((S)-2-amino-3-(4-(trifluoromethyl)phenyl)propyl)-5-(4-chlorothieno[2,3-c]pyridin-2-yl)-1,3,4-thiadiazol-2-amine] | 6.00 to 7.30

SMILES | pIC50
N[C@H](CNc1nnc(-c2cc3ccncc3s2)s1)Cc1ccc(C(F)(F)F)cc1 [Example 10, N-((S)-2-Amino-3-(4-(trifluoromethyl)phenyl)propyl)-5-(thieno[2,3-c]pyridin-2-yl)-1,3,4-thiadiazol-2-amine] | > 7.30
N[C@H](CNc1nnc(-c2ccc3[nH]c(=O)oc3c2)s1)Cc1ccc(C(F)(F)F)cc1 [Example 11, 6-(5-((S)-2-Amino-3-(4-(trifluoromethyl)phenyl)propylamino)-1,3,4-thiadiazol-2-yl)benzo[d]oxazol-2(3H)-one] | > 7.30
N[C@H](CNc1nnc(-c2cc3c(Cl)cncc3s2)s1)Cc1ccccc1 [Example 12, N-((S)-2-Amino-3-phenylpropyl)-5-(4-chlorothieno[2,3-c]pyridin-2-yl)-1,3,4-thiadiazol-2-amine] | 6.00 to 7.30
Cc1cccc(C[C@H](N)CNc2nnc(-c3cc4c(Cl)cncc4s3)s2)c1 [Example 13, N-((S)-2-Amino-3-m-tolylpropyl)-5-(4-chlorothieno[2,3-c]pyridin-2-yl)-1,3,4-thiadiazol-2-amine] | 6.00 to 7.30
N[C@H](CNc1nnc(-c2cc3c(Cl)cncc3s2)s1)Cc1cc(F)cc(F)c1 [Example 14, N-((S)-2-Amino-3-(3,5-difluorophenyl)propyl)-5-(4-chlorothieno[2,3-c]pyridin-2-yl)-1,3,4-thiadiazol-2-amine] | 6.00 to 7.30
CC1(C)C2CC[C@H](CNc3nnc(-c4ccc5cnccc5c4)s3)C1C2 (stereo partly drawn) [Example 15, N-(((2S)-6,6-Dimethylbicyclo[3.1.1]heptan-2-yl)methyl)-5-(isoquinolin-6-yl)-1,3,4-thiadiazol-2-amine] | 6.00 to 7.30
OC[C@H](Nc1nnc(-c2ccc3cnccc3c2)s1)[C@@H](O)c1ccccc1 [Example 16, (1S,2S)-2-(5-(Isoquinolin-6-yl)-1,3,4-thiadiazol-2-ylamino)-1-phenylpropane-1,3-diol] | 5.00 to 6.00
O[C@@H]1CCCC[C@H]1CNc1nnc(-c2ccc3cnccc3c2)s1 [Example 17, (1R,2S)-2-((5-(Isoquinolin-6-yl)-1,3,4-thiadiazol-2-ylamino)methyl)cyclohexanol] | 6.00 to 7.30
c1ccc2[nH]c(CNc3nnc(-c4ccc5cnccc5c4)s3)nc2c1 [Example 18, N-((1H-Benzo[d]imidazol-2-yl)methyl)-5-(isoquinolin-6-yl)-1,3,4-thiadiazol-2-amine] | 5.00 to 6.00
c1ccc2[nH]c(CCNc3nnc(-c4ccc5cnccc5c4)s3)nc2c1 [Example 19, N-(2-(1H-Benzo[d]imidazol-2-yl)ethyl)-5-(isoquinolin-6-yl)-1,3,4-thiadiazol-2-amine] | 5.00 to 6.00
CC1(C)C2CCC1(C)C(Nc1nnc(-c3ccc4cnccc4c3)s1)C2 (stereo not shown) [Example 20, 5-(Isoquinolin-6-yl)-N-(1,7,7-trimethylbicyclo[2.2.1]heptan-2-yl)-1,3,4-thiadiazol-2-amine] | 5.00 to 6.00
O[C@H]1CCCC[C@H]1CNc1nnc(-c2ccc3cnccc3c2)s1 [Example 21, (1S,2S)-2-((5-(Isoquinolin-6-yl)-1,3,4-thiadiazol-2-ylamino)methyl)cyclohexanol] | 6.00 to 7.30
N[C@H](CNc1nnc(-c2ccc3ncncc3c2)s1)Cc1ccc(C(F)(F)F)cc1 [Example 25, N-((S)-2-Amino-3-(4-(trifluoromethyl)phenyl)propyl)-5-(quinazolin-6-yl)-1,3,4-thiadiazol-2-amine] | 6.00 to 7.30
FC(F)(F)c1ccc([C@@H]2CCN[C@@H]2CNc2nnc(-c3ccc4cnccc4c3)s2)cc1 [Example 27, 5-(Isoquinolin-6-yl)-N-(((2S,3S)-3-(4-(trifluoromethyl)phenyl)pyrrolidin-2-yl)methyl)-1,3,4-thiadiazol-2-amine] | 5.00 to 6.00
N[C@H](C(=O)Nc1nnc(-c2ccc3cnccc3c2)s1)[C@@H](CO)c1ccc(C(F)(F)F)cc1 [Example 31, (2S,3S)-2-Amino-4-hydroxy-N-(5-(isoquinolin-6-yl)-1,3,4-thiadiazol-2-yl)-3-(4-(trifluoromethyl)phenyl)butanamide hydrochloride] | 5.00 to 6.00
N[C@H](COc1nnc(-c2ccc3cnccc3c2)s1)Cc1ccc(C(F)(F)F)cc1 [Example 32, (2S)-1-(5-(isoquinolin-6-yl)-1,3,4-thiadiazol-2-yloxy)-3-(4-(trifluoromethyl)phenyl)propan-2-amine] | 6.00 to 7.30
N[C@H](CNc1nnc(-c2ccc3c(c2)CC(=O)N3)s1)Cc1ccc(Cl)cc1 [Example 34, 5-(5-((S)-2-Amino-3-(4-chlorophenyl)propylamino)-1,3,4-thiadiazol-2-yl)indolin-2-one] | > 7.30
